A value given as a limit tells only on which side of the number the result lay.

Data set [1] relates to Glomerella lagenarium (Colletotrichum lagenarium). Kind of data set: Glomerella lagenarium (Colletotrichum lagenarium) / liquid culture (anthracnose). The settings on record: Colletotrichum orbiculare, PDB, 24° C., 3-4 days after application, read-out: control of Glomerella lagenarium (inhibition of growth, photometric). In kind it is cell-based. The procedure, abridged:
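Test compound, delivered in DMSO at an application rate of 200 ppm, was combined with spore-containing PDB. Photometric growth-inhibition measurement followed 3-4 days of incubation at 24° C.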

The subject of the next data set is Pyrenophora teres. As to the kind of experiment: Pyrenophora teres / barley / leaf disc preventative (net blotch). In kind it is in vivo. As to conditions: foliar, barley leaf segments cv Hasso, inoculated two days after application, assessed 5-7 days after application, read-out: control of Pyrenophora teres (disease control compared to untreated). The essentials:
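Preventative leaf-disc test: 200 ppm spray, then spore inoculation after two days on barley cv Hasso segments. Incubation 20 °C, 65% relative humidity, 12 h light/12 h dark; efficacy rated against untreated checks at 5-7 days post-application.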

For another data set, the system named is Gaeumannomyces graminis. Kind of data set: Gaeumannomyces graminis / liquid culture (take-all of cereals). In kind it is cell-based. The settings on record: PDB, 24° C., 4-5 days after application, read-out: control of Gaeumannomyces graminis (inhibition of growth, photometric). The essentials:
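Growth inhibition, measured by photometry 4-5 days post-application at 24 °C, of fungal mycelial fragments in PDB broth. Test compound applied as DMSO solution at 200 ppm.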

For data set [2], the system named is Puccinia recondita f. sp. Tritici. Kind of data set: Puccinia recondita f. sp. tritici / wheat / leaf disc preventative (brown rust). Format: in vivo. The settings on record: foliar, wheat leaf segments cv Kanzler, inoculated 1 day after application, assessed 7-9 days after application, read-out: control of Puccinia recondita f. sp. Tritici (percent disease control compared to untreated). The procedure, abridged: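 Preventative test: percent disease control relative to untreated leaf segments was assessed 7-9 days post-application. Wheat (cv Kanzler) leaf discs were treated at 200 ppm and spore-inoculated 1 day afterwards. Discs were held at 19° C and 75% relative humidity under a 12/12 h light cycle.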

In data set [3] the test system is Botryotinia fuckeliana (Botrytis cinerea). As to the kind of experiment: Botryotinia fuckeliana (Botrytis cinerea) / liquid culture (gray mould). Format: cell-based. As to conditions: Vogels broth, 24° C., 3-4 days after application, read-out: control of Botryotinia fuckeliana (inhibition of growth, photometric). The essentials: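 Test compound was applied at 200 ppm in DMSO, then Vogels nutrient broth containing cryo-stored B. cinerea conidia was added. Photometric growth-inhibition reading followed after 3-4 days at 24 °C.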

Data set [4] relates to Mycosphaerella graminicola (Septoria tritici). As to the kind of experiment: Mycosphaerella graminicola (Septoria tritici) / liquid culture (Septoria blotch). In kind it is cell-based. The settings on record: Zymoseptoria tritici, PDB, 24° C., 4-5 days after application, read-out: control of Mycosphaerella graminicola (inhibition of growth, photometric). The procedure, abridged:
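Growth inhibition was read photometrically after 4–5 days at 24 °C. The test compound was applied at 200 ppm from DMSO solution, then PDB broth seeded with conidia taken straight from cryogenic storage was added.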

The subject of data set [5] is Thanatephorus cucumeris (Rhizoctonia solani). Kind of data set: Thanatephorus cucumeris (Rhizoctonia solani) / liquid culture (foot rot, damping-off). Format: cell-based. As to conditions: PDB, 24° C., 3-4 days after application, read-out: control of Thanatephorus cucumeris (inhibition of growth, photometric). The essentials: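 At 200 ppm, compounds in DMSO were combined with fresh liquid-culture mycelia in PDB and kept at 24° C; photometric measurement of growth inhibition after 3-4 days.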

Data set [6] relates to Monographella nivalis (Microdochium nivale). Kind of data set: Monographella nivalis (Microdochium nivale) / liquid culture (foot rot cereals). As to conditions: PDB, 24° C., 4-5 days after application, read-out: control of Monographella nivalis (inhibition of growth, photometric). In kind it is cell-based. The essentials:
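Cryostored conidia in potato dextrose broth were added to test compound dispensed from DMSO at 200 ppm. Plates were kept at 24° C, and growth inhibition was read photometrically 4-5 days after application.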

Data set [7] relates to Phaeosphaeria nodorum (Septoria nodorum). As to the kind of experiment: Phaeosphaeria nodorum (Septoria nodorum) / wheat / leaf disc preventative (glume blotch). In kind it is in vivo. As to conditions: Parastagonospora nodorum, foliar, wheat leaf segments cv Kanzler, inoculated 2 days after application, assessed 5-7 days after application, read-out: control of Phaeosphaeria nodorum (percent disease control compared to untreated). The protocol:
Phaeosphaeria nodorum (Septoria nodorum)/Wheat/Leaf Disc Preventative (Glume Blotch): Wheat leaf segments cv Kanzler were placed on agar in a 24-well plate and sprayed with formulated test compound diluted in water at an application rate of 200 ppm. The leaf disks are inoculated with a spore suspension of the fungus 2 days after application. The inoculated test leaf disks are incubated at 20° C. and 75% relative humidity under a light regime of 12/12 h (light/dark) in a climate cabinet and the activity of a compound is assessed as percent disease control compared to untreated when an appropriate level of disease damage appears in untreated check leaf disks (5-7 days after application).

The term inhibition denotes the percentage by which the read-out fell short of the control. What is called melting point is the temperature, or range, at which the solid turns liquid. On to `Nc1nc(C(F)(F)F)nn1-c1nc2cnccc2n1C1CCCCC1` [Compound 3, 2-(1-cyclohexylimidazo[4,5-c]pyridin-2-yl)-5-(trifluoromethyl)-1,2,4-triazol-3-amine], for which the melting point was in the range of 203 to 206 °C. Besides, the inhibition at 20 ppm in data set [1] was no less than 80%.
In turn, `Cc1nc(N)n(-c2nc3cnccc3n2C2CCCCC2)n1` [Compound 5, 2-(1-cyclohexylimidazo[4,5-c]pyridin-2-yl)-5-methyl-1,2,4-triazol-3-amine] displayed a melting point of 212 to 215 °C. Further, in the data set with Pyrenophora teres, the pest or weed control at 200 ppm was no less than 80%. Also, in the data set on Gaeumannomyces graminis, the inhibition at 20 ppm was no less than 80%.
In turn, `CCc1nc(N)n(-c2nc3cnccc3n2C2CCCCC2)n1` [Compound 7, 2-(1-cyclohexylimidazo[4,5-c]pyridin-2-yl)-5-ethyl-1,2,4-triazol-3-amine] returned a melting point of 198 to 203 °C. Further, the inhibition at 20 ppm in data set [1] is no less than 80%.
Molecule `Nc1nc(C2CC2)nn1-c1nc2cnccc2n1C1CCCCC1` [Compound 8, 2-(1-cyclohexylimidazo[4,5-c]pyridin-2-yl)-5-cyclopropyl-1,2,4-triazol-3-amine] returned a melting point of 196 to 199 °C. Further, in data set [1], the inhibition at 20 ppm is no less than 80%.
`Cn1c(-n2ncnc2N)nc2cnccc21` [Compound 14, 2-(1-methylimidazo[4,5-c]pyridin-2-yl)-1,2,4-triazol-3-amine] showed a melting point of 240 to 244 °C. Moreover, the pest or weed control at 200 ppm with Pyrenophora teres was no less than 80%. Moreover, the inhibition at 20 ppm in the data set with Gaeumannomyces graminis was no less than 80%.
With `C=CCn1c(-n2ncnc2N)nc2cnccc21` [Compound 17, 2-(1-prop-2-enylimidazo[4,5-c]pyridin-2-yl)-1,2,4-triazol-3-amine], the melting point is 215 to 216 °C. Further, the pest or weed control at 200 ppm in [2] is no less than 80%. Besides, in the data set with Pyrenophora teres, the pest or weed control at 200 ppm is no less than 80%. In [3], the inhibition at 20 ppm was no less than 80%. In addition, the inhibition at 20 ppm in data set [4] is no less than 80%. Besides, the inhibition at 20 ppm with Gaeumannomyces graminis was no less than 80%. Besides, the inhibition at 20 ppm in [5] is no less than 80%.
Molecule `Nc1nc(Br)nn1-c1nc2cnccc2n1C1CCCCC1` [Compound 20, 5-bromo-2-(1-cyclohexylimidazo[4,5-c]pyridin-2-yl)-1,2,4-triazol-3-amine] had a melting point of 217 to 221 °C. Also, in data set [1], the inhibition at 20 ppm was no less than 80%.
On to `CCn1c(-n2ncnc2N)nc2cncc(C=Cc3ccccc3)c21` [Compound 21, 2-[1-ethyl-7-(2-phenylethenyl)imidazo[4,5-c]pyridin-2-yl]-1,2,4-triazol-3-amine], for which the melting point lay in the range of 247 to 252 °C. Also, the inhibition at 20 ppm in data set [4] is no less than 80%. The inhibition at 20 ppm in the data set on Gaeumannomyces graminis was no less than 80%. For the same molecule, the inhibition at 20 ppm in data set [5] was no less than 80%.
The molecule `CCn1c(-n2ncnc2N)nc2cncc(CCc3ccccc3)c21` [Compound 24, 2-[1-ethyl-7-(2-phenylethyl)imidazo[4,5-c]pyridin-2-yl]-1,2,4-triazol-3-amine] gave a melting point of 205 to 208 °C. For the same molecule, the pest or weed control at 200 ppm in [2] was no less than 80%. In addition, the pest or weed control at 200 ppm in the data set on Pyrenophora teres is no less than 80%. In data set [3], the inhibition at 20 ppm was no less than 80%. In data set [1], the inhibition at 20 ppm was no less than 80%. The inhibition at 20 ppm in [4] is no less than 80%. Moreover, in the data set with Gaeumannomyces graminis, the inhibition at 20 ppm was no less than 80%. In addition, the inhibition at 20 ppm in data set [5] is no less than 80%. Moreover, in data set [6], the inhibition at 20 ppm is no less than 80%.
`CCn1c(-n2ncnc2N)nc2cncc(Cc3ccccc3)c21` [Compound 25, 2-(7-benzyl-1-ethylimidazo[4,5-c]pyridin-2-yl)-1,2,4-triazol-3-amine] gave a melting point of 220 to 224 °C. Besides, in [3], the inhibition at 20 ppm is no less than 80%. Moreover, the inhibition at 20 ppm in [4] was no less than 80%. Further, in the data set on Gaeumannomyces graminis, the inhibition at 20 ppm is no less than 80%. Further, the inhibition at 20 ppm in data set [5] is no less than 80%. Moreover, the inhibition at 20 ppm in [6] is no less than 80%.
`CCn1c(-n2ncnc2N)nc2cncc(-c3ccc(C)cc3)c21` [Compound 28, 2-[1-ethyl-7-(4-methylphenyl)imidazo[4,5-c]pyridin-2-yl]-1,2,4-triazol-3-amine] showed a melting point of 234 to 236 °C. Besides, the pest or weed control at 200 ppm in data set [2] is no less than 80%. The pest or weed control at 200 ppm with Pyrenophora teres is no less than 80%. Further, the inhibition at 20 ppm in data set [3] is no less than 80%. For the same molecule, the inhibition at 20 ppm in data set [1] was no less than 80%. The inhibition at 20 ppm in data set [4] was no less than 80%. The inhibition at 20 ppm in [5] is no less than 80%.
As to `CCn1c(-n2ncnc2N)nc2cncc(-c3ccc(F)cc3)c21` [Compound 29, 2-[1-ethyl-7-(4-fluorophenyl)imidazo[4,5-c]pyridin-2-yl]-1,2,4-triazol-3-amine], the melting point fell in the range of 275 to 277 °C. Besides, in data set [3], the inhibition at 20 ppm was no less than 80%. The inhibition at 20 ppm in data set [4] was no less than 80%. In the data set on Gaeumannomyces graminis, the inhibition at 20 ppm was no less than 80%. In addition, in [5], the inhibition at 20 ppm is no less than 80%.
In turn, `Nc1ncnn1-c1nc2cncc(Br)c2n1CC(F)(F)F` [Compound 76, 2-[7-bromo-1-(2,2,2-trifluoroethyl)imidazo[4,5-c]pyridin-2-yl]-1,2,4-triazol-3-amine] displayed a melting point of 234 to 236 °C. For the same molecule, the pest or weed control at 200 ppm in data set [7] was no less than 80%. In addition, the pest or weed control at 200 ppm in the data set on Pyrenophora teres was no less than 80%. In data set [3], the inhibition at 20 ppm is no less than 80%. For the same molecule, the inhibition at 20 ppm in data set [1] is no less than 80%. The inhibition at 20 ppm in [4] is no less than 80%. For the same molecule, the inhibition at 20 ppm with Gaeumannomyces graminis is no less than 80%. The inhibition at 20 ppm in data set [5] is no less than 80%.
`CCn1c(-n2ncnc2N)nc2cncc(C(=O)C=Cc3ccc(F)cc3)c21` [Compound 108, 1-[2-(5-amino-1,2,4-triazol-1-yl)-1-ethylimidazo[4,5-c]pyridin-7-yl]-3-(4-fluorophenyl)prop-2-en-1-one]: the melting point fell in the range of 205 to 209 °C. Besides, the pest or weed control at 200 ppm with Pyrenophora teres is no less than 80%. In [4], the inhibition at 20 ppm is no less than 80%. Further, the inhibition at 20 ppm with Gaeumannomyces graminis is no less than 80%. In addition, the inhibition at 20 ppm in data set [5] is no less than 80%.
`CCCn1c(-n2ncnc2N)nc2cncc(Br)c21` [Compound 110, 2-(7-bromo-1-propylimidazo[4,5-c]pyridin-2-yl)-1,2,4-triazol-3-amine] came in with a melting point of 207 to 208 °C. Besides, the pest or weed control at 200 ppm in data set [2] was no less than 80%. The pest or weed control at 200 ppm with Pyrenophora teres was no less than 80%. Besides, the inhibition at 20 ppm in data set [3] is no less than 80%. Also, the inhibition at 20 ppm in data set [4] was no less than 80%. Moreover, in data set [5], the inhibition at 20 ppm was no less than 80%.
Consider `Nc1ncnn1-c1nc2cncc(Br)c2n1C1CCCCC1` [Compound 112, 2-(7-bromo-1-cyclohexylimidazo[4,5-c]pyridin-2-yl)-1,2,4-triazol-3-amine], for which the melting point fell in the range of 217 to 218 °C. In [1], the inhibition at 20 ppm is no less than 80%.
For `CCn1c(-n2ncnc2N)nc2cncc(C(C)=NOCc3ccccn3)c21` [Compound 142], the melting point lay within 138 to 149 °C. The pest or weed control at 200 ppm in the data set on Pyrenophora teres is no less than 80%. Also, in the data set on Gaeumannomyces graminis, the inhibition at 20 ppm was no less than 80%. The inhibition at 20 ppm in data set [5] was no less than 80%.

Source of the values: patent publication US9512120B2, “Microbicidally active imidazopyridine derivatives” (Syngenta Participations AG, priority 2013, dated 2016).
